Experimental data: patent EP0753258B1 (priority 1995, dated 1997)
Where “and” joins values, the source holds several entries; their conditions need not be identical. Equal entries are not always repeated. Where two headings read alike, the source gives them in different places.

Experiments:
Plasmopara viticola [1] = assay: Field trial, grape vines, Campinas, Brazil (heavy natural infection); format: in vivo; details: grapes
Protocol: (§1) The results provided by the mixtures were compared with the predicted results that were calculated using the formula set forth by S.R. Colby in Weeds 1967, 15, 20-22 ("Colby's Formula") from the results obtained using each of the compounds individually. The predicted results are also provided in the following Examples.
A field trial was conducted in Campinas, Brazil. Plots each consisted of 4 grape vines, cultivar Maria.
Fungicide treatments were applied at 7-day intervals with a total of 5 applications. N-[3'(1'-chloro-3'-methyl-2'-oxopentan]-3,5-dichloro-4-methylbenzamide was applied as a flowable formulation (23% active ingredient) , 2-cyano-N-((ethylamino)carbonyl)-2-(methoxyimino)acetamide as a wettable powder formulation (CURZATE™, 50WP, DuPont, Wilmington, DE). The two compounds were each applied individually in the manner disclosed above and in combination as an aqueous tank mix of the two compounds.
Evaluation of disease in response to a heavy natural infection was made 6 days after the third application, and 7 days after the fifth application. The Compounds applied and dosage rates, expressed as grams of active ingredient per hectare (Compound Dosage Rate (g/ha)) and the results, expressed as percent disease control in comparison with untreated plots (% Control(Observed)) are set forth below in TABLE 6 for treatment with N-[3'(1'-chloro-3'-methyl-2'-oxopentan]-3,5-dichloro4-methylbenzamide, treatment with 2-cyano-N-((ethylamino)carbonyl)-2-(methoxyimino)acetamide and treatment with mixtures of the two compounds. The results obtained using the mixtures of the two compounds were compared with those predicted by Colby's formula from the results provided by each of the two compounds used individually. The predicted results are set forth below in TABLE 6 as "% Control (Predicted)".

Plasmopara viticola [2] = assay: Field trial, grape downy mildew fruit rot, Michigan, U.S.A. (natural infection); format: in vivo; details: 12 days after last treatment, 100 g/ha of each compound, grapes; for % Control, Incidence (Observed): downy mildew fruit rot incidence; for % Control, Severity (Observed): downy mildew fruit rot severity (diseased fruit surface area)
Protocol: as §1
The trial was conducted in the State of Michigan, U.S.A. Plots consisted of 4 grape vines, cultivar Chancellor. Four such plots arranged in randomized blocks were used for each treatment
Fungicide treatments were applied at day 0, and at 13, 28, 43, 55, 71, and 84 days thereafter. N-[3(1'-chloro-3'-methyl-2'-oxopentan]-3,5-dichloro-4-methylbenzamide was applied as a flowable formulation (23% active ingredient) at 100 grams of active ingredient per hectare, and 2-cyano-N-((ethylamino)carbonyl)-2-(methoxyimino)acetamide was applied as a wettable powder formulation (CURZATE™, 50WP, DuPont, Wilmington, DE) at 100 grams of active ingredient per hectare. The two compounds were also applied as an aqueous tank mix of the two compounds at a dosage of 100 grams of active ingredient per hectare of each compound.
Evaluation of disease in response to natural infection was made 12 days after the last treatment The incidence and severity of downy mildew fruit rot was determined for twenty clusters of fruit selected randomly from the middle two vines of each plot Incidence refers to whether or not the cluster was diseased, and severity is the percentage of diseased fruit surface area. The compounds applied (Compound), and the incidence and severity results, expressed as percent disease control in comparison with untreated plots (% Control, Incidence (Observed) and % Control, Severity (Observed), respectively) are set forth below in TABLE 4 for treatment with N-[3'(1'-chloro-3'-methyl-2'-oxopentan]-3,5-dichloro-4-methylbenzamide, treatment with 2-cyano-N-((ethylamino)carbonyl)-2-(methoxyimino)acetamide and treatment with a mixture of the two compounds. The results obtained using the mixture of the two compounds were compared with predicted results that were calculated using Colby's formula from the results obtained using each of the compounds individually. The predicted results for incidence and severity are set forth below in TABLE 4 as "% Control, Incidence (Predicted)" and "% Control, Severity (Predicted)", respectively.

Phytophthora infestans [3] = format: in vivo; details: 6 days after inoculation, tomatoes
Plasmopara viticola [4] = details: in vivo
Phytophthora infestans [5] = details: in vivo
Phytophthora infestans [6] = details: in vivo; remark: listed apart in the source

Row | Compound | % Control, Incidence (Observed) (Plasmopara viticola [2]) [%] | % Control, Severity (Observed) (Plasmopara viticola [2]) [%] | % Control (Observed) (Phytophthora infestans [3]; single compound 0.4 ppm) [%] | % Control (Observed) (Phytophthora infestans [3]; single compound 0.8 ppm) [%] | % Control (Observed) (Plasmopara viticola [4]) [%] | % Control (Observed) (Phytophthora infestans [5]) [%] | % Control by Evaluation Interval 5 weeks (Phytophthora infestans [6]) | % Control by Evaluation Interval 6 weeks (Phytophthora infestans [6]) | % Control by Evaluation Interval 7 weeks (Phytophthora infestans [6]) | also measured
1 | CCNC(=O)NC(=O)C(C#N)=NOC [Compound C, 2-cyano-N-((ethylamino)carbonyl)-2-(methoxyimino)acetamide] | 2.5 | 34.6 |  |  |  |  |  |  |  | % Control (Observed) (Plasmopara viticola [1]; Seven days after the fifth treatment, C 25 g/ha alone): 66.7%; % Control (Observed) (Plasmopara viticola [1]; Seven days after the fifth treatment, C 50 g/ha alone): 59.6%; % Control (Observed) (Plasmopara viticola [1]; Seven days after the fifth treatment, C 100 g/ha alone): 64.3%; % Control (Observed) (Plasmopara viticola [1]; Six days after the third treatment, C 25 g/ha alone): 71.3%; % Control (Observed) (Plasmopara viticola [1]; Six days after the third treatment, C 50 g/ha alone): 64.8%; % Control (Observed) (Plasmopara viticola [1]; Six days after the third treatment, C 100 g/ha alone): 74.1%
2 | CCC(C)(NC(=O)c1cc(Cl)c(C)c(Cl)c1)C(=O)CCl (stereo not drawn) [Compound A] | 43.7 | 75.3 | 0 | 20 | 87 | 23 | 99% and 98% | 97% and 81% | 88% and 56% | % Control by Evaluation Interval 9 weeks (Phytophthora infestans [6]): 16% and 11%; % Control by Evaluation Interval 10 weeks (Phytophthora infestans [6]): 11% and 6%; % Control by Evaluation Interval 11 weeks (Phytophthora infestans [6]): 1% and 0%; % Control (Observed) (Plasmopara viticola [1]; Seven days after the fifth treatment, A 100 g/ha alone): 21.4%; % Control (Observed) (Plasmopara viticola [1]; Seven days after the fifth treatment, A 200 g/ha alone): 26.1%; % Control (Observed) (Plasmopara viticola [1]; Six days after the third treatment, A 100 g/ha alone): 24.3%; % Control (Observed) (Plasmopara viticola [1]; Six days after the third treatment, A 200 g/ha alone): 21.8%
3 | COc1ccc(C(=CC(=O)N2CCOCC2)c2ccc(Cl)cc2)cc1OC [Compound D, (E,Z) 4-(3-(4-chlorophenyl)-3-(3,4-dimethoxyphenyl)acryloyl) morpholine] |  |  | 0 | 10 |  |  |  |  |  | % Control (Observed) (Phytophthora infestans [3]; single compound 1.5 ppm): 35%
4 | manganese-zinc ethylenebis(dithiocarbamate) [reference compound] |  |  |  |  | 61 | 69 | 99% and 98% | 98% and 88% | 95% and 80% | % Control by Evaluation Interval 8 weeks (Phytophthora infestans [6]): 87% and 62%
